≈ marks a conversion by molar mass, not a printed value. Blank lines part the entries; values can stand above or below the molecule they belong to. Calls of active or inactive are those of the source. No cut-off for these calls is given here.
Key:
[1] = tested on: Candida albicans; assay: Antifungal activity against Candida albicans assessed as reduction in fungal growth incubated for 24 hrs by broth microdilution method; assay type: functional
[2] = tested on: Candida albicans; assay: Antifungal activity against Candida albicans NR-29434 assessed as reduction in fungal growth incubated for 24 hrs by broth microdilution method; assay type: functional; settings: NR-29434, 24 h
[3] = tested on: Candida albicans; assay: Antifungal activity against Candida albicans NR-29449 assessed as reduction in fungal growth incubated for 24 hrs by broth microdilution method; assay type: functional; settings: NR-29449, 24 h
[4] = tested on: Candida albicans; assay: Antifungal activity against Candida albicans NR-29435 assessed as reduction in fungal growth incubated for 24 hrs by broth microdilution method; assay type: functional; settings: NR-29435, 24 h
[5] = tested on: Candida albicans; assay: Antifungal activity against Candida albicans NR-29448 assessed as reduction in fungal growth incubated for 24 hrs by broth microdilution method; assay type: functional; settings: NR-29448, 24 h
[6] = tested on: Candida albicans; assay: Antifungal activity against Candida albicans NR-29437 assessed as reduction in fungal growth incubated for 24 hrs by broth microdilution method; assay type: functional; settings: NR-29437, 24 h
[7] = tested on: Candida albicans; assay: Antifungal activity against Candida albicans NR-29446 assessed as reduction in fungal growth incubated for 24 hrs by broth microdilution method; assay type: functional; settings: NR-29446, 24 h
[8] = tested on: Candida albicans; assay: Antifungal activity against Candida albicans NR5-29453 assessed as reduction in fungal growth incubated for 24 hrs by broth microdilution method; assay type: functional; settings: NR5-29453, 24 h
[9] = tested on: Candida albicans; assay: Antifungal activity against Candida albicans NR-29438 assessed as reduction in fungal growth incubated for 24 hrs by broth microdilution method; assay type: functional; settings: NR-29438, 24 h
[10] = tested on: Candida albicans; assay: Antifungal activity against Candida albicans NR-29367 assessed as reduction in fungal growth incubated for 24 hrs by broth microdilution method; assay type: functional; settings: NR-29367, 24 h
[11] = tested on: Candida albicans; assay: Antifungal activity against Candida albicans NR-29439 assessed as reduction in fungal growth incubated for 24 hrs by broth microdilution method; assay type: functional; settings: NR-29439, 24 h
[12] = tested on: Candida albicans; assay: Antifungal activity against Candida albicans NR-29440 assessed as reduction in fungal growth incubated for 24 hrs by broth microdilution method; assay type: functional; settings: NR-29440, 24 h
[13] = tested on: Candida albicans; assay: Antifungal activity against Candida albicans NR-29441 assessed as reduction in fungal growth incubated for 24 hrs by broth microdilution method; assay type: functional; settings: NR-29441, 24 h
[14] = tested on: Candida albicans; assay: Antifungal activity against Candida albicans NR-29442 assessed as reduction in fungal growth incubated for 24 hrs by broth microdilution method; assay type: functional; settings: NR-29442, 24 h
[15] = tested on: Candida albicans; assay: Antifungal activity against Candida albicans NR-29444 assessed as reduction in fungal growth incubated for 24 hrs by broth microdilution method; assay type: functional; settings: NR-29444, 24 h
[16] = tested on: Candida albicans; assay: Antifungal activity against Candida albicans ATCC 10231 assessed as reduction in fungal growth incubated for 24 hrs by broth microdilution method; assay type: functional; settings: ATCC 10231, 24 h
[17] = tested on: Cryptococcus neoformans; assay: Antifungal activity against Cryptococcus neoformans NR-41291 assessed as reduction in fungal growth incubated for 24 hrs by broth microdilution method; assay type: functional; settings: NR-41291, 24 h
[18] = tested on: Cryptococcus neoformans; assay: Antifungal activity against Cryptococcus neoformans NR-41292 assessed as reduction in fungal growth incubated for 24 hrs by broth microdilution method; assay type: functional; settings: NR-41292, 24 h
[19] = tested on: Cryptococcus neoformans; assay: Antifungal activity against Cryptococcus neoformans NR-41296 assessed as reduction in fungal growth incubated for 24 hrs by broth microdilution method; assay type: functional; settings: NR-41296, 24 h
[20] = tested on: Cryptococcus neoformans; assay: Antifungal activity against Cryptococcus neoformans NR-41295 assessed as reduction in fungal growth incubated for 24 hrs by broth microdilution method; assay type: functional; settings: NR-41295, 24 h
[21] = tested on: Cryptococcus neoformans; assay: Antifungal activity against Cryptococcus neoformans NR-41294 assessed as reduction in fungal growth incubated for 24 hrs by broth microdilution method; assay type: functional; settings: NR-41294, 24 h
[22] = tested on: Cryptococcus neoformans; assay: Antifungal activity against Cryptococcus neoformans NR-41297 assessed as reduction in fungal growth incubated for 24 hrs by broth microdilution method; assay type: functional; settings: NR-41297, 24 h
[23] = tested on: Cryptococcus neoformans; assay: Antifungal activity against Cryptococcus neoformans NR-41298 assessed as reduction in fungal growth incubated for 24 hrs by broth microdilution method; assay type: functional; settings: NR-41298, 24 h
[24] = tested on: Cryptococcus neoformans; assay: Antifungal activity against Cryptococcus neoformans NR-41299 assessed as reduction in fungal growth incubated for 24 hrs by broth microdilution method; assay type: functional; settings: NR-41299, 24 h
[25] = tested on: Candida albicans; assay: Antifungal activity against Candida albicans NR-29366 assessed as reduction in fungal growth incubated for 24 hrs by broth microdilution method; assay type: functional, organism-based
[26] = tested on: Candida albicans; assay: Antifungal activity against Candida albicans assessed as reduction in hyphae formation and attachment at 32 to 64 ug/ml incubated for 12 hrs by crystal violet dye-based microscopic analysis; assay type: functional; design: scale not given: the % may be the effect or the level left
[27] = tested on: Candida albicans; assay: Inhibition of biofilm formation in Candida albicans assessed as reduction in metabolic activity at 32 and 64 ug/ml incubated for 48 hrs by MTS assay; assay type: functional
[28] = tested on: HCT-116; assay: Cytotoxicity against human HCT116 cells assessed as reduction in cell viability at 2 to 128 ug/ml incubated for 24 hrs by MTS assay; assay type: cell-based; settings: hct-116, 24 h

MIC [1]: 32 µg/mL (≈ 67.7 µM)
SMILES: O=C1Nc2ccccc2[C@@]12N[C@H](Cc1c[nH]c3ccccc13)[C@@H]([N+](=O)[O-])[C@@H]2c1ccccc1Cl

MIC [1]: 64 µg/mL (≈ 159 µM)
SMILES: Cc1ccc([C@H]2[C@H]([N+](=O)[O-])[C@@H](Cc3c[nH]cn3)N[C@]23C(=O)Nc2ccccc23)cc1

MIC [1]: 8 µg/mL (≈ 13.3 µM)
SMILES: O=C1Nc2ccc(OC(F)(F)F)cc2[C@@]12N[C@H](Cc1c[nH]c3ccccc13)[C@@H]([N+](=O)[O-])[C@@H]2c1ccc(Br)cc1

MIC [1]: 16 µg/mL (≈ 41.1 µM)
SMILES: O=C1Nc2ccccc2[C@@]12N[C@H](Cc1c[nH]cn1)[C@@H]([N+](=O)[O-])[C@@H]2c1ccccc1

MIC [1]: 32 µg/mL (≈ 76.3 µM)
SMILES: COc1ccc([C@H]2[C@H]([N+](=O)[O-])[C@@H](Cc3c[nH]cn3)N[C@]23C(=O)Nc2ccccc23)cc1

MIC [1]: 8 µg/mL (≈ 15.3 µM)
SMILES: O=C1Nc2ccc(OC(F)(F)F)cc2[C@@]12N[C@H](Cc1c[nH]c3ccccc13)[C@@H]([N+](=O)[O-])[C@@H]2c1ccccc1

MIC [1]: 16 µg/mL (≈ 34.2 µM)
SMILES: O=C1Nc2ccccc2[C@@]12N[C@H](Cc1c[nH]cn1)[C@@H]([N+](=O)[O-])[C@@H]2c1ccc(Br)cc1

MIC [1]: 128 µg/mL (≈ 283 µM)
SMILES: Cc1ccc([C@H]2[C@H]([N+](=O)[O-])[C@@H](Cc3c[nH]c4ccccc34)N[C@]23C(=O)Nc2ccccc23)cc1

MIC [1]: 16 µg/mL (≈ 28.2 µM)
SMILES: O=C1Nc2ccc(OC(F)(F)F)cc2[C@@]12N[C@H](Cc1c[nH]c3ccccc13)[C@@H]([N+](=O)[O-])[C@@H]2c1cccc([N+](=O)[O-])c1

Continued, molecule first:

SMILES: O=C1Nc2ccccc2[C@@]12N[C@H](Cc1c[nH]c3ccccc13)[C@@H]([N+](=O)[O-])[C@@H]2c1cccc([N+](=O)[O-])c1
MIC [1]: 8 µg/mL (≈ 16.5 µM)

SMILES: O=C1Nc2ccc(OC(F)(F)F)cc2[C@@]12N[C@H](Cc1c[nH]cn1)[C@@H]([N+](=O)[O-])[C@@H]2c1ccc(Cl)cc1
MIC [1]: 8 µg/mL (≈ 15.8 µM)

SMILES: COc1ccc([C@H]2[C@H]([N+](=O)[O-])[C@@H](Cc3c[nH]c4ccccc34)N[C@]23C(=O)Nc2ccccc23)cc1
MIC [1]: 16 µg/mL (≈ 34.2 µM)

SMILES: O=C1Nc2ccccc2[C@@]12N[C@H](Cc1c[nH]c3ccccc13)[C@@H]([N+](=O)[O-])[C@@H]2c1ccc(Br)cc1
MIC [1]: 64 µg/mL (≈ 124 µM)

SMILES: COc1ccc([C@H]2[C@H]([N+](=O)[O-])[C@@H](Cc3c[nH]c4ccccc34)N[C@]23C(=O)Nc2ccc(OC(F)(F)F)cc23)cc1
MIC [1]: 16 µg/mL (≈ 29 µM)

SMILES: O=C1Nc2ccccc2[C@@]12N[C@H](Cc1c[nH]cn1)[C@@H]([N+](=O)[O-])[C@@H]2c1ccccc1Cl
MIC [1]: 8 µg/mL (≈ 18.9 µM)

SMILES: O=C1Nc2ccccc2[C@@]12N[C@H](Cc1c[nH]c3ccccc13)[C@@H]([N+](=O)[O-])[C@@H]2c1ccc(Cl)cc1
MIC [1]: 16 µg/mL (≈ 33.8 µM)

SMILES: O=C1Nc2ccc(OC(F)(F)F)cc2[C@@]12N[C@H](Cc1c[nH]cn1)[C@@H]([N+](=O)[O-])[C@@H]2c1ccccc1
MIC [1]: 32 µg/mL (≈ 67.6 µM)

SMILES: O=C1Nc2ccccc2[C@@]12N[C@H](Cc1c[nH]cn1)[C@@H]([N+](=O)[O-])[C@@H]2c1cccc([N+](=O)[O-])c1
MIC [1]: 16 µg/mL (≈ 36.8 µM)

SMILES: O=C1Nc2ccc(OC(F)(F)F)cc2[C@@]12N[C@H](Cc1c[nH]c3ccccc13)[C@@H]([N+](=O)[O-])[C@@H]2c1ccc(Cl)cc1
MIC [1]: 16 µg/mL (≈ 28.7 µM)

SMILES: O=C1Nc2ccccc2[C@@]12N[C@H](Cc1c[nH]cn1)[C@@H]([N+](=O)[O-])[C@@H]2c1ccc(Cl)cc1
MIC [1]: 8 µg/mL (≈ 18.9 µM)

SMILES: COc1ccc([C@H]2[C@H]([N+](=O)[O-])[C@@H](Cc3c[nH]cn3)N[C@]23C(=O)Nc2ccc(OC(F)(F)F)cc23)cc1
MIC [1]: 32 µg/mL (≈ 63.6 µM)

SMILES: O=C1Nc2ccc(OC(F)(F)F)cc2[C@@]12N[C@H](Cc1c[nH]c3ccccc13)[C@@H]([N+](=O)[O-])[C@@H]2c1ccccc1Cl
MIC [1]: 16 µg/mL (≈ 28.7 µM)

SMILES: O=C1Nc2ccc(OC(F)(F)F)cc2[C@@]12N[C@H](Cc1c[nH]cn1)[C@@H]([N+](=O)[O-])[C@@H]2c1ccccc1Cl
MIC [1]: 4 µg/mL (≈ 7.88 µM)
MIC [2]: 16 µg/mL (≈ 31.5 µM)
MIC [3]: 8 µg/mL (≈ 15.8 µM)
MIC [4]: 8 µg/mL (≈ 15.8 µM)
MIC [5]: 4 µg/mL (≈ 7.88 µM)
MIC [6]: 16 µg/mL (≈ 31.5 µM)
MIC [7]: 4 µg/mL (≈ 7.88 µM)
MIC [8]: 16 µg/mL (≈ 31.5 µM)
MIC [9]: 16 µg/mL (≈ 31.5 µM)
MIC [10]: 16 µg/mL (≈ 31.5 µM)
MIC [11]: 8 µg/mL (≈ 15.8 µM)
MIC [12]: 16 µg/mL (≈ 31.5 µM)
MIC [13]: 8 µg/mL (≈ 15.8 µM)
MIC [14]: 8 µg/mL (≈ 15.8 µM)
MIC [15]: 16 µg/mL (≈ 31.5 µM)
MIC [16]: 8 µg/mL (≈ 15.8 µM)
MIC [17]: 16 µg/mL (≈ 31.5 µM)
MIC [18]: 16 µg/mL (≈ 31.5 µM)
MIC [19]: 16 µg/mL (≈ 31.5 µM)
MIC [20]: 16 µg/mL (≈ 31.5 µM)
MIC [21]: 4 µg/mL (≈ 7.88 µM)
MIC [22]: 16 µg/mL (≈ 31.5 µM)
MIC [23]: 8 µg/mL (≈ 15.8 µM)
MIC [24]: 16 µg/mL (≈ 31.5 µM)
inhibition [25]: Active
Activity [26]: 30 - 40%
inhibition (INH) [27]: <=25%
Activity [28]: Non-Toxic

SMILES: Cc1ccc([C@H]2[C@H]([N+](=O)[O-])[C@@H](Cc3c[nH]cn3)N[C@]23C(=O)Nc2ccc(OC(F)(F)F)cc23)cc1
MIC [1]: 16 µg/mL (≈ 32.8 µM)

SMILES: O=C1Nc2ccccc2[C@@]12N[C@H](Cc1c[nH]c3ccccc13)[C@@H]([N+](=O)[O-])[C@@H]2c1ccccc1
MIC [1]: 64 µg/mL (≈ 146 µM)

SMILES: O=C1Nc2ccc(OC(F)(F)F)cc2[C@@]12N[C@H](Cc1c[nH]cn1)[C@@H]([N+](=O)[O-])[C@@H]2c1cccc([N+](=O)[O-])c1
MIC [1]: 32 µg/mL (≈ 61.7 µM)

SMILES: Cc1ccc([C@H]2[C@H]([N+](=O)[O-])[C@@H](Cc3c[nH]c4ccccc34)N[C@]23C(=O)Nc2ccc(OC(F)(F)F)cc23)cc1
MIC [1]: 32 µg/mL (≈ 59.6 µM)

SMILES: O=C1Nc2ccc(OC(F)(F)F)cc2[C@@]12N[C@H](Cc1c[nH]cn1)[C@@H]([N+](=O)[O-])[C@@H]2c1ccc(Br)cc1
MIC [1]: 8 µg/mL (≈ 14.5 µM)
